Measured values from patent publication US7629439B2, “Peptides derived from the protein MMP-2, and the use thereof in antitumoral immunotherapy” (INSERM (Institut National de la Sante et de la Recherche …, priority 2003, dated 2009).

Test system: T2 cells
Experiment: 51Cr release: sensitization of T2 cells to lysis by CTL clone M134.12
Type: cell-based
Settings: 51Cr-labeled T2 cells, 60 minutes at 37° C. with peptide, effector/target ratio 10/1, 4 hours; compared among four peptides (FIG. 4)
Experimental: These peptides were used to sensitize T2 cells labeled with ^51Cr. These cells were incubated for 60 minutes at 37° C. with various concentrations of each of the peptides to be tested. CTL M134.12 effector cells were then added at an effector cell/target cell ratio of 10/1. The amount of ^51Cr released into the supernatant is measured 4 hours later.
Along the y-axis, the percentage specific lysis.
Along the x-axis, the concentration of peptide LGLPPDVQRV (●) (SEQ ID NO: 2), GLPPDVQRV (▪) (SEQ ID NO: 1), LPPDVQRV (▴) (SEQ ID NO: 3), or GLPPDVQR(X) (SEQ ID NO: 4) in nM.

In the case of “GLPPDVQRV (listed as Homo sapiens) [peptide derived from region 556-593 of the MMP-2 protein, presented by HLA-A*0201]”, the “sensitizing T2 cells to lysis by the CTL clone M134.12 (percentage specific lysis)” value is reported as “most effective”.
